Source: PubChem BioAssay AID2060503 (Molecular Pharmacology Branch, DTP, NCI, 2025)
Where “and” joins values, the source holds several entries; their conditions need not be identical. Equal entries are not always repeated.

Test system: 817829-284-R-J1-PDC complex spheroids, viability
Assay: Anticancer human tumor 817829-284-R-J1-PDC patient-derived colon adenocarcinoma cell line growth inhibition [GQUAD]
Details: for viability, T/C: stronger effect = lower value
From the text: DNA G-quadruplex Stabilizer Agents in Combinations in Complex Spheroids
A high-throughput screen of multi-cell type tumor spheroids was designed to identify active combinations of DNA G-quadruplex stabilizer agents and targeted small molecules. Complex spheroids include a stromal component modeled by human endothelial cells (HUVEC) and fibroblasts modeled by human mesenchymal stem cells (MSCs). The concentration ranges selected for each drug and investigational agent were based upon clinically achievable concentrations if the clinical Cmax of the agent was known.
Compounds. The drugs and investigational agents: pidnarulex (CX-5461; NSC782164), APTO-253 (NSC789042), BRACO-19 (NSC847499), peposertib (NSC802822), ceralasertib (NSC780249), elimusertib (NSC800525), camonsertib (NSC841442), AZD-1390 (NSC803789), olaparib (NSC753686), talazoparib (NSC767125), ART-558 (NSC835418), sotorasib (NSC818433), MRTX-1133 (NSC836407), SN-38 (NSC673596), topotecan (NSC609699), etoposide (NSC141540), doxorubicin (NSC123127), gemcitabine (NSC613327), 5-fluorouracil (NSC19893), paclitaxel (NSC125973), vemurafenib (NSC761431), panobinostat (NSC761190), R-306465 (JNJ-16241199; NSC773264), adavosertib (NSC754352), TP-3654 (NSC805149), carboplatin (NSC241240), KSQ-4279 (NSC840948), and staurosporine (NSC755774) were obtained from the National Cancer Institute (NCI) Developmental Therapeutics Program Chemical Repository (34). The FDA-approved anticancer drug set is available from the NCI Developmental Therapeutics Program. […] The stock solutions were prepared in dimethyl sulfoxide (DMSO, Sigma-Aldrich, St. Louis, MO, cat. D2650) at 800-fold the tested concentration and stored at -70 degrees C prior to their use. All drugs and investigational agents were tested over a range starting from a high concentration at or near the clinical Cmax and decreasing in half-log increments. If the clinical Cmax for an agent had not been determined, the highest concentration tested was 10 microM.
2.3 Cell Culture. All cells were maintained in an incubator at 37 degrees C and 5% CO2 with 95% humidity. The PDC lines were cultured according to standard operating procedures established by the NCI PDMR. All PDCs were thawed and cultured in Matrigel-coated flasks prepared with a working solution of 1X Ham's F-12 nutrient mix, without supplementation (Invitrogen, cat. 11765054), 100 U/mL penicillin-streptomycin (Invitrogen, cat. 15140122), and 2.5% Matrigel (Corning Inc., cat. 354248) for the first three passages. The 857933-349-R-J2-PDC line was cultured in 6C/Colon 1B media, which includes advanced DMEM/F-12 (Thermo Fisher Scientific, cat. 12634028), 10 mM HEPES (Thermo Fisher Scientific, cat. 15630080), 1X GlutaMAX supplement (Thermo Fisher Scientific, cat. 35050061), 0.1 mg/mL primocin (InvivoGen, cat. ant-pm-2), 10% defined fetal bovine serum, heat inactivated (HyClone Laboratories Inc., cat. SH30070.03HI), 50% L-WRN conditioned media (ATCC, cat. CRL-3276), 1.25 mM N-Acetyl-L-cysteine (Sigma-Aldrich, cat. A9165), 10 mM nicotinamide (Sigma-Aldrich, cat. N0636), 1X B-27 supplement (Thermo Fisher Scientific, cat. 17504044), 1X N-2 supplement (Thermo Fisher Scientific, cat. 17502048), 10 microM Y-27632 dihydrochloride (Tocris Bioscience, cat. 1254), and 50 ng/mL human EGF recombinant protein (Thermo Fisher Scientific, cat. PHG0311). The 485176-168-R4-J1-PDC line was cultured in Panc media, which includes all 6C/Colon 1B media components plus 100 ng/mL human FGF-10 (Thermo Fisher Scientific, cat. 100-26), 500 nM SB-431542 (Selleckchem, cat. S1067), and gastrin (Tocris, cat. 3006).
[…]

[1] = compound alone, run of 02/20/2024
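Note: spheroids exposed to agents for 7 days before readout.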
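Throughout, for viability, T/C: percent viability relative to DMSO vehicle control taken as 100%.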

Compound	IC50 (curve of compound)	IC50 [1]	viability, T/C (compound 0.0316 µM)	viability, T/C (compound 0.1 µM)	viability, T/C (compound 0.316 µM)	viability, T/C (compound 1 µM)	viability, T/C (compound 3.16 µM)	viability, T/C (compound 10 µM)	viability, T/C (compound 0.000999 µM)	viability, T/C (compound 0.00316 µM)	viability, T/C (compound 0.00999 µM)	viability, T/C (compound 0.0999 µM)
Cc1[nH]c2ccc(F)cc2c1-c1nc2c3cccnc3c3ncccc3c2[nH]1	–	3.3 µM [middle of 8 runs]	–	103% [middle of 12 runs]	106% [middle of 12 runs]	99.8% [middle of 12 runs]	–	–	–	–	–	–
Cc1[nH]c2ccccc2c1CCNCc1ccc(/C=C/C(=O)NO)cc1	45.8 nM and 48.8 nM and 33.7 nM	–	73% and 78.2% and 52.8%	–	0.17% and 0.23% and 0.08%	–	–	–	110% and 93.9% and 106%	101% and 100% and 86.5%	127% and 124% and 113%	3.77% and 5.53% and 6.09%
Nc1ccn(C2OC(CO)C(O)C2(F)F)c(=O)n1 (stereo not drawn)	< 31.6 nM	–	24.6% and 9.45% and 15.3%	5.55% and 8% and 4.56%	7.44% and 8.2% and 6.55%	5.74% and 7.67% and 5.48%	6.14% and 6.82% and 5.88%	3.68% and 3.93% and 3.72%	–	–	–	–
O=C(NO)c1cnc(N2CCN(S(=O)(=O)c3ccc4ccccc4c3)CC2)nc1	67.9 nM and 186 nM and 121 nM	–	114% and 111% and 117%	17.6% and 102% and 59%	0.33% and 5.46% and 5.25%	0.17% and 0.29% and 0.13%	0.1% and 0.26% and 0.04%	0.15% and 0.25% and 0.07%	–	–	–	–
O=C(c1cc(Cc2n[nH]c(=O)c3ccccc23)ccc1F)N1CCN(C(=O)C2CC2)CC1	> 10000 nM	–	113% and 106% and 116%	87.2% and 96.7% and 103%	103% and 99% and 90.6%	91% and 94.4% and 89.3%	89.1% and 97.4% and 95.1%	57.6% and 60.7% and 49%	–	–	–	–
O=c1[nH]cc(F)c(=O)[nH]1	1540 nM and 1750 nM and 2140 nM	–	97.6% and 102% and 99.2%	94.3% and 91.8% and 102%	127% and 111% and 106%	59.1% and 63.2% and 70.3%	39.4% (2×) and 42.5%	30.5% and 32.8% and 30.7%	–	–	–	–

More lines, main results first:

IC50 (curve of compound)	IC50 [1]	Compound	viability, T/C (compound 0.0316 µM)	viability, T/C (compound 0.1 µM)	viability, T/C (compound 0.316 µM)	viability, T/C (compound 1 µM)	viability, T/C (compound 3.16 µM)	viability, T/C (compound 10 µM)	viability, T/C (compound 0.000999 µM)	viability, T/C (compound 0.00316 µM)	viability, T/C (compound 0.00999 µM)	viability, T/C (compound 0.0999 µM)
159 nM and 166 nM and 230 nM	–	COc1cc(C2c3cc4c(cc3C(OC3OC5COC(C)OC5C(O)C3O)C3COC(=O)C23)OCO4)cc(OC)c1O (stereo not drawn)	115% and 98.4% and 91%	62% and 67.7% and 92.4%	29.3% and 26.7% and 34.1%	26.2% and 28.1% and 42.2%	22.6% and 26.7% and 29.9%	10.5% and 9.2% and 10.2%	–	–	–	–
> 10000 nM and 6030 nM	–	COc1ccc([C@@H](O)c2cc(-c3ncnc4cc(N5CCOCC5)ccc34)c(F)cc2Cl)nn1	103% and 96.1% and 90.7%	90.9% and 95.3% and 105%	106% and 104% and 100%	80.6% and 84.1% and 83.6%	84.3% and 82.3% and 64.7%	53.4% and 67.6% and 39.1%	–	–	–	–
84.7 nM and 99.1 nM and 82.1 nM	–	COc1cccc2c1C(=O)c1c(O)c3c(c(O)c1C2=O)CC(O)(C(=O)CO)CC3OC1CC(N)C(O)C(C)O1 (stereo not drawn)	100% and 82% and 106%	32.7% and 42.4% and 30.9%	30.1% and 39% and 26.2%	9.58% and 10.5% and 8.06%	0.57% and 0.58% and 0.61%	0.32% and 0.4% and 0.19%	–	–	–	–
> 10000 nM	–	COc1ncnc(C2CC2)c1-c1ncc2cnn(Cc3ccc(-c4nc(C(F)(F)F)cn4C(C)C)cc3)c2n1	96.6% and 97.8% and 103%	97.4% and 111% and 113%	99.2% and 107% and 110%	84.8% and 117% and 106%	102% and 106% and 111%	116% and 114% and 115%	–	–	–	–
> 10000 nM	–	Cc1cccc(N(C)C(=O)C2C(O)CCN2c2nc(C)cc(C(F)(F)F)c2C#N)c1 (stereo not drawn)	94.3% and 102% and 95.3%	97.8% and 81.6% and 93.5%	92.5% and 107% and 96.8%	88.1% and 99% and 82.6%	92.4% and 88.4% and 96.7%	96.7% and 83.4% and 98.1%	–	–	–	–
–	85.8 nM [middle of 11 runs]	Cc1cnc(CNC(=O)c2c(=O)c3ccc(N4CCCN(C)CC4)nc3n3c2sc2ccccc23)cn1	90.4% [middle of 12 runs]	39.5% [middle of 12 runs]	29.2% [middle of 12 runs]	23.6% [middle of 12 runs]	15.9% [middle of 12 runs]	0.15% [middle of 8 runs]	–	–	–	–
> 316 nM	–	Cn1ncnc1[C@H]1c2n[nH]c(=O)c3cc(F)cc(c23)N[C@@H]1c1ccc(F)cc1	91.3% and 82.8% and 82%	–	72.2% and 75.2% and 66.5%	–	–	–	111% and 90.3% and 92.1%	86.5% and 83.5% and 92.8%	106% and 112% and 101%	83.5% and 82.1% and 84%
